Results as given in patent publication US11202773B2, “Locally bioavailable drugs” (UNIVERSITY OF HOUSTON SYSTEM, priority 2015, dated 2021).
Read-outs that look alike come from different tables or passages of the source.

Experiments:
human COX-2 [1] = biological target: T1, human COX-2 (Homo sapiens, UniProt P35354); assay: In vitro enzyme assay, recombinant human COX-2 (PGE2 production); assay type: biochemical; conditions: read-out: IC50 against recombinant human COX-2
T1 sequence (P35354 18-604): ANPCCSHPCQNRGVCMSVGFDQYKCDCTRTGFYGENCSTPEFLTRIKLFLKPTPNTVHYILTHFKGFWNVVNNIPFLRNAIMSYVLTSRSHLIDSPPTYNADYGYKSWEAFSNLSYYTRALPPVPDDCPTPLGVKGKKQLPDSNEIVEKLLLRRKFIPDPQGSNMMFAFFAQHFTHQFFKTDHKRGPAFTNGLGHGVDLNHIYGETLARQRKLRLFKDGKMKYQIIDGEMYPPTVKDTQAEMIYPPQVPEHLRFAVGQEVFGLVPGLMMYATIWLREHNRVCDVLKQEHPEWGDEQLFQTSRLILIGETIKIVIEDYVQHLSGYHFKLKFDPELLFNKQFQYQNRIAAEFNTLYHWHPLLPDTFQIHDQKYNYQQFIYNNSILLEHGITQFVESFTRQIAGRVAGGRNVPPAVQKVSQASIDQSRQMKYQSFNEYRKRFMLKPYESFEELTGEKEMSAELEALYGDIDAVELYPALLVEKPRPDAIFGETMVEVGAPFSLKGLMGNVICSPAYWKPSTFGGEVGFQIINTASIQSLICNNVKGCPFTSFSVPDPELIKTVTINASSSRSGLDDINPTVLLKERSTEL
Source text: FIG. 3A is a bar graph illustration of PGE2 production by recombinant human COX-2 enzyme in the presence of the new compounds. Less PGE2 production means inhibition of COX-2 enzyme.
FIG. 3B is a bar graph illustration of PGE2 production by recombinant human COX-2 enzyme in the presence of the metabolites of the new compounds. Less PGE2 production means inhibition of COX-2 enzyme.

rat colon microsomes = assay: Glucuronidation by rat colon microsomes; assay type: in vitro ADME
Protocol: (§1) FIG. 5B is a bar graph illustrating in vitro glucuronidation of phenolics in liver and colon microsomes of rats. Glucuronidation rates of 6a1-6a4 by rat liver and colon microsomes were measured. Additional metabolic rates of various locally bioavailable COX-2 inhibitors are in Table 3. […]. The incubation systems were: for glucuronidation, 0.88 mM magnesium chloride (MgCl2), 4.4 mM saccharolactone, 0.022 mg/mL alamethicin, 3.5 mM uridine 5′-diphospho-glucuronic acid (UDPGA), 10 μM substrates and different concentrations of microsomes in 50 mM potassium phosphate buffer (pH 7.4); for sulfation, 10 mM dithiothreitol (DTT), 5 mM MgCl2, 100 μM 3′-phosphoadenosine-5′-phosphosulfate (PAPS), 10 μM substrate and different concentrations of S9 fractions in 50 mM potassium phosphate buffer (pH 7.4).
(§2) In vitro tools were employed to help predict the in vivo metabolism rates of the COX-2 inhibitors that are phenolics. The microsomes and S9 fractions prepared from colon or liver were used to determine the in vivo glucuronidation and sulfation rates of the phenolic compounds, respectively. By employing microsomes and S9 fractions prepared from both rats and humans, it could be determined if the results obtained in the rat model could be reasonably extrapolated to humans. In these experiments, raloxifene and genistein, two phenolic compounds which undergo extensive first-pass metabolism, were selected as controls.

human Colon S9 [2] = assay: Sulfation by human colon S9; assay type: in vitro ADME; conditions: substrate 10 μM
Protocol: (§3) FIG. 5D is a bar graph illustrating in vitro metabolism of phenolics. Glucuronidation rates of 6a1-6a4 by human liver and intestinal microsomes. Additional metabolic rates of various locally bioavailable COX-2 inhibitors are in Table 4. […]. The incubation systems were: for glucuronidation, 0.88 mM magnesium chloride (MgCl2), 4.4 mM saccharolactone, 0.022 mg/mL alamethicin, 3.5 mM uridine 5′-diphospho-glucuronic acid (UDPGA), 10 μM substrates and different concentrations of microsomes in 50 mM potassium phosphate buffer (pH 7.4); for sulfation, 10 mM dithiothreitol (DTT), 5 mM MgCl2, 100 μM 3′-phosphoadenosine-5′-phosphosulfate (PAPS),10 μM substrate and different concentrations of S9 fractions in 50 mM potassium phosphate buffer (pH 7.4).
as §2

recombinant human COX-1 = recombinant human COX-1 (Homo sapiens, UniProt P23219); assay: In vitro enzyme assay, recombinant human COX-1; assay type: biochemical; conditions: read-out: IC50 against recombinant human COX-1
human liver microsomes = assay: Glucuronidation by human liver microsomes; assay type: in vitro ADME
Protocol: as §3, §2

human Colon S9 [3] = assay: Glucuronidation by human colon S9; assay type: in vitro ADME; conditions: substrate 10 μM
Protocol: as §3
as §2, with “The microsomes and S9 fractions prepared from colon or liver were used to determine the in vivo glucuronidation and sulfation rates of the phenolic compounds, respectively.” left out

rat liver microsomes = assay: Glucuronidation by rat liver microsomes; assay type: in vitro ADME
Protocol: as §1, with “FIG. 5A” for “FIG. 5B”, “vitro metabolism” for “vitro glucuronidation”, “phenolics via glucuronidation pathway.” for “phenolics in liver and colon microsomes of rats.”, “of all the new locally bioavailable COX-2 inhibitors” for “of 6a1-6a4”, “liver microsomes.” for “liver and colon microsomes were measured.”, “3′-phosphoadenosine-5′-phosphosulfate (PAPS),10” for “3′-phosphoadenosine-5′-phosphosulfate (PAPS), 10”
as §2

mouse COX-2 = biological target: T2, mouse COX-2 (Mus musculus, UniProt Q05769); assay: COX-2 activity (PGD2/PGE2 production) in LPS-induced Raw264.7 cells; assay type: cell-based; conditions: 0.1 μg/mL LPS, 14 hours co-incubation
T2 construct: Raw264.7 is a mouse macrophage cell line which expresses a high level of COX-2 protein upon lipopolysaccharide (LPS) induction; endogenous in cells; host or cells: Raw264.7 (LPS-induced)
T2 sequence (Q05769 18-604): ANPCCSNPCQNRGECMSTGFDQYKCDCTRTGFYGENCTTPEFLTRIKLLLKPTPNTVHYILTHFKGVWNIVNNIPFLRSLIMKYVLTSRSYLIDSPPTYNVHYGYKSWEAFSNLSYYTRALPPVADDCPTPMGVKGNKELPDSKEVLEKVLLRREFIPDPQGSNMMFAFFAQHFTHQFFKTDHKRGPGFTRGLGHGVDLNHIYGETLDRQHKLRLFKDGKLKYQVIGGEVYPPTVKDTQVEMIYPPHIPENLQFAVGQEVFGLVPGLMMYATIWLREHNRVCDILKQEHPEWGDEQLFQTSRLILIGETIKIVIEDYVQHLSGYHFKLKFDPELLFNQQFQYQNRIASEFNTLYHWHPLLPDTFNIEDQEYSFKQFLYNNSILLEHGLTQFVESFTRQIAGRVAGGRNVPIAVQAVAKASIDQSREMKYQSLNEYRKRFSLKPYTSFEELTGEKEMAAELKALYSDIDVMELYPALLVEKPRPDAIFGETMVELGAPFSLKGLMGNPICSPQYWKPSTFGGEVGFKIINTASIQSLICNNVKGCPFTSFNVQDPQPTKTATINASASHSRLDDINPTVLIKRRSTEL
Protocol: (§4) First, the inhibitory effects of the new synthesized compounds on COX-2 were assayed in two cell lines: Raw264.7 cells and HCA-7 cells. Raw264.7 is a mouse macrophage cell line which expresses a high level of COX-2 protein upon lipopolysaccharide (LPS) induction. […] The concentration of prostaglandins (both PGD2 and PGE2) accumulated in the cell culture medium can be employed as an indicator of COX-2 activity. HCA-7 is a human colon cancer cell line in which COX-2 protein is constitutively expressed. Briefly, the cells were pre-incubated with different concentrations of the new compounds for 30 min, and then 10 μM A23187 (a calcium ionophore) was added to release membrane-bound arachidonic acid (the natural substrate of COX-2) to the cytosolic domain. The system was incubated for another 30 minutes and PGE2 concentrations in the culture medium were determined. In both cell lines, higher PGD2/PGE2 concentrations in the media meant more COX-2 activity.

human COX-2 [4] = biological target: T1, human COX-2; assay: COX-2 activity (PGE2 production) in HCA-7 cells after A23187; assay type: cell-based; parameters: HCA-7 is a human colon cancer cell line in which COX-2 protein is constitutively expressed; endogenous in cells; host or cells: HCA-7; conditions: 30 min pre-incubation, 10 μM A23187, another 30 minutes
Protocol: as §4

[5] = system: human intestine microsomes; assay: Glucuronidation by human intestine microsomes; assay type: in vitro ADME
Protocol: as §3, §2

human liver S9 = assay: Sulfation by human liver S9; assay type: in vitro ADME; conditions: 10 μM, pH 7.4
Protocol: as §3, §2

rat colon S9 = assay: Sulfation by rat colon S9 fractions; assay type: in vitro ADME; conditions: 10 μM, pH 7.4
Protocol: as §1, with “FIG. 5C” for “FIG. 5B”, “vitro metabolism” for “vitro glucuronidation”, “phenolics via sulfonation pathway. Sulfation” for “phenolics in liver and colon microsomes of rats. Glucuronidation”, “colon S9 fractions.” for “colon microsomes were measured.”, “μM 3′-phosphoadeno sine-5′-phosphosulfate (PAPS),10” for “μM 3′-phosphoadenosine-5′-phosphosulfate (PAPS), 10”
as §2

human intestine S9 = assay: Sulfation by human intestine S9; assay type: in vitro ADME; conditions: 10 μM, pH 7.4
Protocol: as §3, §2

rat liver S9 = assay: Sulfation by rat liver S9 fractions; assay type: in vitro ADME; conditions: 10 μM, pH 7.4
Protocol: as §1, with “FIG. 5C” for “FIG. 5B”, “vitro metabolism” for “vitro glucuronidation”, “phenolics via sulfonation pathway. Sulfation” for “phenolics in liver and colon microsomes of rats. Glucuronidation”, “colon S9 fractions.” for “colon microsomes were measured.”, “μM 3′-phosphoadeno sine-5′-phosphosulfate (PAPS),10” for “μM 3′-phosphoadenosine-5′-phosphosulfate (PAPS), 10”
as §2

recombinant human COX-1, sequence (P23219 24-599): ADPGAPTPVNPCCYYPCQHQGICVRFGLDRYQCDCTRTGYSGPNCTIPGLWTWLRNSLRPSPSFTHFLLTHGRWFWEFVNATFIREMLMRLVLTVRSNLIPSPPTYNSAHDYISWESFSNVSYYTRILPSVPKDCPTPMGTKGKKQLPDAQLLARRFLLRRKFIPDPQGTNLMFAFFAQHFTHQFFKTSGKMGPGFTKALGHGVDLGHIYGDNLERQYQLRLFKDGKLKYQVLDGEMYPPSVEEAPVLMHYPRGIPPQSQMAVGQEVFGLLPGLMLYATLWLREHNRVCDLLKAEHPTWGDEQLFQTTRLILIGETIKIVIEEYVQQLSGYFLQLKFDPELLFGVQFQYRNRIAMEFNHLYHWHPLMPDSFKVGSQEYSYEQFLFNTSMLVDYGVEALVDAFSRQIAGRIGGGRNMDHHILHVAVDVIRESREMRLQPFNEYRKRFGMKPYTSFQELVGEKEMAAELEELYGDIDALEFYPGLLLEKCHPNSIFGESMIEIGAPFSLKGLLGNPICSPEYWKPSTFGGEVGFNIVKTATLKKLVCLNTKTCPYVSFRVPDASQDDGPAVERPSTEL

| SMILES | IC50 (human COX-2 [1]) [nM] | IC50 (recombinant human COX-1) [µM] | Glucuronidation rates by liver microsomes (Mean) (rat liver microsomes) [pmol/mg/min] | IC50 (mouse COX-2) [µM] | also measured |
| --- | --- | --- | --- | --- | --- |
| Cc1ccc(-c2cc(COCc3ccccc3O)nn2-c2ccc(S(N)(=O)=O)cc2)cc1 [Compound 7a1] | 1.11 | 4.9 | 1050 | – | Glucuronidation rates by colon microsomes (Mean) (rat colon microsomes): 160 pmol/mg/min; Sulfation rates by human Colon S9 (Mean) (human Colon S9 [2]): 40 pmol/mg/min; Glucuronidation rates by liver microsomes (Mean) (human liver microsomes): 2510 pmol/mg/min; Glucuronidation rates by human Colon S9 (Mean) (human Colon S9 [3]): 190 pmol/mg/min |
| NS(=O)(=O)c1ccc(-n2nc(COc3ccccc3O)cc2-c2ccccc2)cc1 [Compound 6b1] | 54500 | 197 | 7453 | – | – |
| COc1ccc(-c2cc(COc3ccccc3O)nn2-c2ccc(S(N)(=O)=O)cc2)cc1 [Compound 6c1] | 40.3 | 19.8 | 7026 | – | – |
| NS(=O)(=O)c1ccc(-n2nc(COc3ccc(O)cc3)cc2-c2ccccc2)cc1 [Compound 6b3] | 2250 | 0.028 | 656 | 0.033 ± 0.004 | – |
| NS(=O)(=O)c1ccc(-n2nc(COc3cccc(O)c3)cc2-c2ccccc2)cc1 [Compound 6b2] | 207 | 145 | 4132 | 4.31 ± 0.629 | – |
| COc1ccccc1COCc1cc(-c2ccc(C)cc2)n(-c2ccc(S(N)(=O)=O)cc2)n1 [Compound 7a3] | 40.3 | 19.8 | – | – | – |
| CCOC(=O)c1cc(-c2ccc(C)cc2)n(-c2ccc(S(N)(=O)=O)cc2)n1 [Compound 3a] | – | – | – | 0.071 ± 0.021 | IC50 (human COX-2 [4]): 0.149 ± 0.026 µM |
| Cc1ccc(-c2cc(COc3ccc4c(=O)c(O)c(-c5ccccc5)oc4c3)nn2-c2ccc(S(N)(=O)=O)cc2)cc1 [Compound 6a4] | 2590 | 16 | 4763 | 0.303 ± 0.055 | Glucuronidation rates by colon microsomes (Mean) (rat colon microsomes): 571 pmol/mg/min; Glucuronidation rates by liver microsomes (Mean) (human liver microsomes): 291 pmol/mg/min; Glucuronidation by rat liver microsomes (FIG. 5A) (rat liver microsomes): rapidly glucuronidated; IC50 (human COX-2 [4]): 0.162 ± 0.065 µM; Glucuronidation rates by intestine microsomes (Mean) [5]: 2134 pmol/mg/min |
| COc1ccc(-c2cc(COc3ccc(O)cc3)nn2-c2ccc(S(N)(=O)=O)cc2)cc1 [Compound 6c3] | 623 | 12.6 | 934 | 0.019 ± 0.002 | – |
| COc1ccc(-c2cc(COc3cccc(O)c3)nn2-c2ccc(S(N)(=O)=O)cc2)cc1 [Compound 6c2] | 353 | 1.1 | 3092 | 2.38 ± 0.502 | – |
| O=C(c1ccc(OCCN2CCCCC2)cc1)c1c(-c2ccc(O)cc2)sc2cc(O)ccc12 [Raloxifene, reference compound] | – | – | – | – | Sulfation rates by liver S9 (Mean) (human liver S9): 19 pmol/mg/min; Glucuronidation rates by colon microsomes (Mean) (rat colon microsomes; rat, 10 μM, pH 7.4): 54 pmol/mg/min; Sulfation rates by colon S9 (Mean) (rat colon S9): 0 pmol/mg/min; Sulfation rates by human intestine S9 (Mean) (human intestine S9): 58 pmol/mg/min; Glucuronidation rates by liver microsomes (Mean) (human liver microsomes; human, 10 μM, pH 7.4): 681 pmol/mg/min; Sulfation rates by liver S9 (Mean) (rat liver S9): 100 pmol/mg/min; Glucuronidation rates by liver microsomes (Mean) (rat liver microsomes; rat, 10 μM, pH 7.4): 402 pmol/mg/min; Glucuronidation rates by intestine microsomes (Mean) ([5]; human, 10 μM, pH 7.4): 2846 pmol/mg/min |
